Experiments:
[1] = target: human BACE1 (Homo sapiens, UniProt P56817); experiment: Fluorescent kinetic assay, BACE-1 binding affinity (peptide substrate WABC-6 cleavage); format: biochemical; settings: 10 nM enzyme, 25 μM substrate WABC-6, Na-Acetate pH 4.5, room temperature
Experimental: Evaluation of BACE-1 Binding Affinity of Test Compounds
Fluorescent Kinetic Assay
Final Assay Conditions: 10 nM human BACE1 (or 10 nM Murine BACE1), 25 μM substrate (WABC-6, MW 1549.6, from AnaSpec), Buffer: 50 mM Na-Acetate, pH 4.5, 0.05% CHAPS, 25% PBS, room temperature. Na-Acetate was from Aldrich, Cat. #24, 124-5, CHAPS was from Research Organics, Cat. #1304C 1X, PBS was from Mediatech (Cellgro), Cat#21-031-CV, peptide substrate Abz[…]pa was from AnaSpec, Peptide Name: WABC-6 Determination of stock substrate (Abz[…]pa) concentration: ˜25 mM stock solution is made in DMSO using the peptide weight and MW, and diluted to ˜25 μM (1:1000) in 1×PBS. Concentration is determined by absorbance at 354 nm using an extinction coefficient ε of 18172 M^−1cm^−1, the concentration of stock substrate is corrected, and the substrate stock stored in small aliquots in −80° C. […] Determination of Stock Enzyme Concentration: the stock concentration of each enzyme is determined by absorbance at 280 nm using ε of 64150 M^−1cm^−1 for hBACE1 and MuBACE1 in 6 M Guanidinium Hydrochloride (from Research Organics, Cat. # 5134G-2), pH ˜6. The extinction coefficient ε^280 nm for each enzyme was calculated based on known amino acid composition and published extinction coefficients for Trp ([…]) and Tyr ([…]) residues (Anal. Biochem. 182, 319-326). Dilution and mixing steps: total reaction volume: 100 μL
2× inhibitor dilutions in buffer A (66.7 mM Na-Acetate, pH 4.5, 0.0667% CHAPS) were prepared,
4× enzyme dilution in buffer A (66.7 mM Na-Acetate, pH 4.5, 0.0667% CHAPS) were prepared,
100 μM substrate dilution in 1× PBS was prepared, and
50 μL 2× Inhibitor, 25 μL 100 μM substrate are added to each well of 96-well plate (from DYNEX Technologies, VWR #: 11311-046), immediately followed by 25 μL 4× enzyme (added to the inhibitor and substrate mix), and the fluorescence readings are initiated.
Fluorescence Readings: Readings at λex 320 nm and λem 420 nm are taken every 40 sec for 30 min at room temperature and the linear slope for substrate cleavage rate (vi) determined.
Calculation of % Inhibition: % Inhibition=100*(1−vi/v0) • vi: substrate cleavage rate in the presence of inhibitor • v0: substrate cleavage rate in the absence of inhibitor • IC50 Determination: % Inhibition=((B*IC50^n)+(100*I0^n))/(IC50^n+I0^n) (Model #39 from LSW Tool Bar in Excel where B is the % inhibition from the enzyme control, which should be close to 0.) % Inhibition is plotted vs. Inhibitor Concentration (I0) and the data fit to the above equation to obtain IC50 value and Hill number (n) for each compound.

human BACE1, sequence (P56817 46-501): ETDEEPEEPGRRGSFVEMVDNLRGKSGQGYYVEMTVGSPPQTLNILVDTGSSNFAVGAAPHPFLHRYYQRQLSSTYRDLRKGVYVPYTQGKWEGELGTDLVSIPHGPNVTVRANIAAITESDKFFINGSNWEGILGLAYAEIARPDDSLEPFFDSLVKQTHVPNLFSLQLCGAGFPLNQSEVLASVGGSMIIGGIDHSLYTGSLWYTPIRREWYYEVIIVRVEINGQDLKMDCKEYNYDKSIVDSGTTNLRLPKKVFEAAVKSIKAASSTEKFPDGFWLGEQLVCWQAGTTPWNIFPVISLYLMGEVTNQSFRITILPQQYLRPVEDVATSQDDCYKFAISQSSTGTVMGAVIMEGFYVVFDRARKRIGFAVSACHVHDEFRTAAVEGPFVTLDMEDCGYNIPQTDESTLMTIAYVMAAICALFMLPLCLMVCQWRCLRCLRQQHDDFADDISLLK

Compound	IC50 [1]	melting point
COc1ccc2c(c1C)CCc1ccc(-c3cc(F)ccc3F)cc1C21N=C(N)N(C)C1=O (stereo not shown) [Example 7, 2′-amino-7-(2,5-difluorophenyl)-2-methoxy-1,1′-dimethyl-10,11-dihydrospiro[dibenzo[a,d][7]annulene-5,4′-imidazol]-5′(1′H)-one]	0.25 µM	155 to 195 °C
COc1ccc2c(c1C)CCc1ccc(-c3cccc(C#N)c3)cc1C21N=C(N)N(C)C1=O (stereo not shown) [Example 8, 3-(2′-amino-8-methoxy-1′,9-dimethyl-5′-oxo-1′,5′, 10,11-tetrahydrospiro[dibenzo[a,d][7]annulene-5,4′-imidazol]-3-yl)benzonitrile]	0.235 µM	269 to 280 °C
COc1cccc(-c2ccc3c(c2)C2(N=C(N)N(C)C2=O)c2ccc(OC)c(C)c2CC3)c1 (stereo not shown) [Example 9, 2′-amino-2-methoxy-7-(3-methoxyphenyl)-1,1′-dimethyl-10,11-dihydrospiro[dibenzo[a,d][7]annulene-5,4′-imidazol]-5′(1′H)-one]	0.138 µM	
COc1ccc2c(c1C)CCc1ccc(-c3cc(F)cc(F)c3)cc1C21N=C(N)N(C)C1=O (stereo not shown) [Example 10, 2′-amino-7-(3,5-difluorophenyl)-2-methoxy-1,1′-dimethyl-10,11-dihydrospiro[dibenzo[a,d][7]annulene-5,4′-imidazol]-5′(1′H)-one]	0.376 µM	245 to 249 °C
COc1ccc2c(c1)CCc1ccc(-c3ccccc3)cc1C21N=C(N)N(C)C1=O (stereo not shown) [Example 12, 2′-Amino-2-methoxy-1′-methyl-7-phenyl-10,11-dihydrospiro[dibenzo[a,d][7]annulene-5,4′-imidazol]-5′(1′H)-one]	0.18 µM	

Compounds with a lower IC50 [1], results first:

IC50 [1]	melting point	Compound
0.108 µM		2′-amino-7-(6-fluoropyridin-3-yl)-2-methoxy-1,1′-dimethyl-10,11-dihydrospiro[dibenzo[a,d][7]annulene-5,4′-imidazol]-5′(1′H)-one [Example 6]
0.077 µM	235 to 239 °C	COc1ccc2c(c1C)CCc1ccc(-c3cccnc3)cc1C21N=C(N)N(C)C1=O (stereo not shown) [Example 3, 2′-Amino-2-methoxy-1,1′-dimethyl-7-pyridin-3-yl-10,11-dihydrospiro[dibenzo[a,d][7]annulene-5,4′-imidazol]-5′(1′H)-one]
0.063 µM	153 to 155 °C	COc1ccc2c(c1C)CCc1ccc(-c3cccnc3F)cc1C21N=C(N)N(C)C1=O (stereo not shown) [Example 4, 2′-amino-7-(2-fluoropyridin-3-yl)-2-methoxy-1,1′-dimethyl-10,11-dihydrospiro[dibenzo[a,d][7]annulene-5,4′-imidazol]-5′(1′H)-one]

Source: patent US7582667B2, “Dihydrospiro[dibenzo[a,d][7]annulene-5,4′-imidazol] compounds for the inhibition of beta-secretase” (Wyeth, priority 2006, dated 2009)
